The target of this assay is T1, Human CatG (Homo sapiens, UniProt P08311).
T1 construct: purchased Elastin Products Company (Owensville, MO, USA)
T1 sequence (P08311 21-255): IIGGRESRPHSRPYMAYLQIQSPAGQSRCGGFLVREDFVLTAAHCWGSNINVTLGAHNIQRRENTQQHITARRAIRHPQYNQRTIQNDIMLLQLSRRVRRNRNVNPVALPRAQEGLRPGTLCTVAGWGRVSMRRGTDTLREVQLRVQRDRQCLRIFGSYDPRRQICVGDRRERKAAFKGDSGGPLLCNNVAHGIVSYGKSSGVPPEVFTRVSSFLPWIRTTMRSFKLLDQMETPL
The experiment in a line: Direct inhibition of CatG, chromogenic substrate (S-7388) hydrolysis assay, IC50 determination. Format: biochemical. The note with it: 100 mM NaCl. As to the method: A chromogenic substrate hydrolysis assay was used to determine the direct inhibition of CatG by the NSGMs, as previously reported. To each well of a 96-well microplate containing 88 µL of 20 mM tris buffer, containing 100 mM NaCl, 2.5 mM CaCl2, 0.1% PEG 8000, and 0.05% Tween 80, 4 µL of CatG (final concentration of 60 nM) and 5 µL of H2O or NSGM (final concentration of 0–100 µM) were added. After incubating for a period of 5 min, 3 µL of CatG substrate (S-7388, final concentration of 750 µM) was added, and the residual CatG activity was obtained from the initial rate of increase of absorbance at 405 nm. The relative residual activity of CatG for each of the NSGMs, at the various concentrations, was calculated from the ratio of CatG activity in the presence and absence of NSGMs. The dose dependence curve was plotted using a logistic equation (see below) in Sigmaplot version 12 to obtain the IC50 (potency), Hill slope (HS), and efficacy (ΔY). Here, Y is the ratio of residual CatG activity in the presence of NSGMs to that in their absence, YO and YM are the minimum and maximum values of fractional residual CatG activity, respectively, IC50 is the concentration of the NSGM that inhibits CatG activity by 50%, and HS is the Hill slope. ΔY = YM − YO. Y=YO+YM−YO/1+10^logI0−logIC50HS
Figure 4 Representative IC50 profiles for CatG inhibition by NSGMs. Direct inhibition of human CatG was measured using the chromogenic substrate hydrolysis assay at pH 7.4 and 37 °C. Solid lines represent analysis using the logistic dose–response relationship (Equation (1)) to obtain the IC50, ΔY%, and HS. Errors represent ± 1 S.E.

“And” between values parts separate entries of the source, which are not always exact repeats. Equal entries are not always repeated. Where two headings read alike, the source gives them in different places.

Broadly, the IC50 is the concentration needed to halve the response being measured.

Regarding `O=c1c(OS(=O)(=O)O)c(-c2ccc(OS(=O)(=O)O)c(OS(=O)(=O)O)c2)oc2cc(OS(=O)(=O)O)cc(OCc3ccc(COc4cc(OS(=O)(=O)O)cc5oc(-c6ccc(OS(=O)(=O)O)c(OS(=O)(=O)O)c6)c(OS(=O)(=O)O)c(=O)c45)cc3)c12` [NSGM 25], the IC50 (pH 7.4, read-out: IC50 (potency)) is ~50 nM and 53 nM; the IC50 (pH 7.4 tris buffer, 37 °C, 60 nM CatG, 750 µM S-7388, ± 1 S.E., read-out: IC50) worked out at 50 ± 10 nM. In addition, the “HS (Hill slope)” value (Hill slope of dose-response fit, pH 7.4) was found to be 0.7 ± 0.1. Besides, where the note is “ΔY = YM − YO of dose-response fit, pH 7.4”, the “ΔY (efficacy)” value was 95 ± 7%.

The values are drawn from paper PMC10216581, “Homogeneous, Synthetic, Non-Saccharide Glycosaminoglycan Mimetics as Potent Inhibitors of Human Cathepsin G” (Biomolecules, 2023).
